From ChEMBL document CHEMBL1122067, “Species- or isozyme-specific enzyme inhibitors. 4. Design of a two-site inhibitor of adenylate kinase with isozyme selectivity” (J Med Chem, 1982)
Values joined by “and” are separate entries in the source; they are usually repeats but may differ in a detail not shown here. Identical values can stand only once.

How the values were obtained:
[1] = target: T1, GTP:AMP phosphotransferase AK3, mitochondrial (Rattus norvegicus, UniProt P29411); assay: Competitive binding inhibition constant of rat Adenylate kinase III was determined
T1 sequence (P29411 whole entry): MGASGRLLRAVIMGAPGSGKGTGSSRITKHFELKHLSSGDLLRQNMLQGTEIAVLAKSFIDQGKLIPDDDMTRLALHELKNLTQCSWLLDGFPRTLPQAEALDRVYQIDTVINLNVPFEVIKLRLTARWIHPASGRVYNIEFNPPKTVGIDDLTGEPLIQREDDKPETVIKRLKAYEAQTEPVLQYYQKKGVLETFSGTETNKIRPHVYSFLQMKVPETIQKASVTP

[2] = Non-competitive binding inhibition constant (Ki) of rat adenylate kinase (AK) isozymes was determined
[3] = Ability to inhibit the rat muscle adenylate kinase isozyme in competition with the AMP varied
[4] = target: T2, Adenylate kinase 2, mitochondrial (Rattus norvegicus, UniProt P29410); assay: Ability to inhibit the rat muscle adenylate kinase (AK II) isozyme in competition with the AMP varied; conditions: in the assay text read “rat liver” for “rat muscle”
[5] = target: T1, GTP:AMP phosphotransferase AK3, mitochondrial; assay: Ability to inhibit the rat muscle adenylate kinase lII in competition with the AMP varied; conditions: in the assay text read “rat liver adenylate kinase III” for “rat muscle adenylate kinase lII”
[6] = target: T2, Adenylate kinase 2, mitochondrial; assay: Ability to inhibit the rat muscle adenylate kinase (AK II) isozyme in competition with the ATP varied; conditions: in the assay text read “rat liver” for “rat muscle”
[7] = Ability to inhibit the rat muscle adenylate kinase isozyme in competition with the ATP varied
[8] = target: T2, Adenylate kinase 2, mitochondrial; assay: Ability to inhibit the rat muscle adenylate kinase(AK II) isozyme in competition with the ATP varied; conditions: in the assay text read “rat liver” for “rat muscle”
[9] = target: T2, Adenylate kinase 2, mitochondrial; assay: Ability to inhibit the rat muscle adenylate kinase(AK II) isozyme in competition with the AMP varied; conditions: in the assay text read “rat liver” for “rat muscle”
[10] = Non competitive binding inhibition constant(Ki) of rat adenylate kinase (AK) isozymes was determined
[11] = target: T2, Adenylate kinase 2, mitochondrial; assay: Non competitive binding inhibition constant (Ki) of rat adenylate kinase (AK II) isozymes was determined
[12] = target: T1, GTP:AMP phosphotransferase AK3, mitochondrial; assay: Non competitive binding inhibition constant of rat aAdenylate kinase III was determined
[13] = Competitive binding inhibition constant (Ki) of rat adenylate kinase (AK) isozymes was determined
[14] = target: T1, GTP:AMP phosphotransferase AK3, mitochondrial; assay: Non competitive binding inhibition of rat adenylate kinase IIl was determined
[15] = Non competitive binding inhibition constant (Ki) of rat adenylate kinase (AK) isozymes was determined
[16] = target: T1, GTP:AMP phosphotransferase AK3, mitochondrial; assay: Competitive binding inhibition constant of rat adenylate kinase IIl was determined
[17] = target: T2, Adenylate kinase 2, mitochondrial; assay: Competitive binding inhibition constant(Ki) of rat adenylate kinase (AK II) isozymes was determined
[18] = Non-competitive binding inhibition constant(Ki) of rat adenylate kinase (AK) isozymes was determined

Compound: CC(=O)NCCCCCCNc1ncnc2c1ncn2C1O[C@H](COP(=O)(O)OP(=O)(O)OP(=O)(O)O)[C@@H](O)[C@H]1O (some centres not stated)
- Ki [1]: 4.8 mM
- Ki [2]: 12.9 mM

Compound: Nc1ncnc2c1ncn2[C@@H]1O[C@H](COP(=O)(O)OP(=O)(O)OP(=O)(O)OP(=O)(O)OP(=O)(O)OC[C@H]2O[C@@H](n3cnc4c(N)ncnc43)[C@H](O)[C@@H]2O)[C@@H](O)[C@H]1O
- Inhibition constant [3]: 0.26 µM
- Inhibition constant [4]: 0.28 µM
- Inhibition constant [5]: 0.3 µM
- Inhibition constant [6]: 0.3 µM
- Inhibition constant [7]: 0.26 µM

Compound: CCSc1nc2c(N)ncnc2n1C1O[C@H](COP(=O)(O)OP(=O)(O)OP(=O)(O)OP(=O)(O)OP(=O)(O)OC[C@H]2OC(n3cnc4c(N)ncnc43)[C@H](O)[C@@H]2O)[C@@H](O)[C@H]1O (some centres not stated)
- Inhibition constant [3]: 3.5 µM
- Inhibition constant [5]: 0.08 µM and 0.07 µM
- Inhibition constant [8]: 0.08 µM
- Inhibition constant [9]: 0.06 µM
- Inhibition constant [7]: 3 µM

Compound: CC(=O)NCCNc1ncnc2c1ncn2C1O[C@H](COP(=O)(O)O)[C@@H](O)[C@H]1O (some centres not stated)
- Ki [10]: 3.1 mM
- Ki [11]: 11.4 mM
- Ki [12]: 12.4 mM

Compound: CCCCN(CCCC)c1ncnc2c1ncn2C1O[C@H](COP(=O)(O)OP(=O)(O)OP(=O)(O)O)[C@@H](O)[C@H]1O (some centres not stated)
- Ki [13]: 2 mM
- Ki [1]: 3 mM

Compound: CC(=O)NCCCCCCCCNc1ncnc2c1ncn2C1O[C@H](COP(=O)(O)O)[C@@H](O)[C@H]1O (some centres not stated)
- Ki [11]: 12.6 mM
- Ki [14]: 14 mM
- Ki [15]: 4.8 mM

Compound: O=C(CI)NCCCCCNc1ncnc2c1ncn2C1O[C@H](COP(=O)(O)OP(=O)(O)OP(=O)(O)O)[C@@H](O)[C@H]1O (some centres not stated)
- Ki [16]: 6.2 mM
- Ki [2]: 6 mM

Compound: Nc1ncnc2c1nc(Sc1ccccc1)n2[C@@H]1O[C@H](COP(=O)(O)OP(=O)(O)OP(=O)(O)O)[C@@H](O)[C@H]1O
- Ki [1]: 0.32 mM
- Ki [2]: 4 mM

Compound: CCCSc1nc2c(N)ncnc2n1[C@@H]1O[C@H](COP(=O)(O)OP(=O)(O)OP(=O)(O)O)[C@@H](O)[C@H]1O
- Ki [17]: 0.06 mM
- Ki [1]: 0.07 mM
- Ki [18]: 6.2 mM
